22 compounds from US6624174B2, “2-amino-nicotinamide derivatives and their use as VEGF-receptor tyrosine kinase inhibitors” (Novartis AG, priority 2000, dated 2003) can be followed below.

Take `Cc1ccc(C(F)(F)F)cc1NC(=O)c1cccnc1NCc1ccncc1` [Example 22, 2-[(4-Pyridyl)methylamino]-N-[2-methyl-5-(trifluoromethyl)phenyl]-3-pyridinecarboxamide]: the melting point (usually the temperature, or range, at which the solid turns liquid) lay in the range of 155 to 156 °C. In turn, `O=C(Nc1ccc(Br)c(C(F)(F)F)c1)c1cccnc1NCc1ccncc1` [Example 20, 2-[(4-Pyridyl)methylamino]-N-[4-bromo-3-(trifluoromethyl)phenyl]-3-pyridinecarboxamide] showed a melting point of 164 to 165 °C.

Take `CCCc1ccc(NC(=O)c2cccnc2NCc2ccncc2)cc1C(F)(F)F` [Example 40, 2-[(4-Pyridyl)methyl]amino-N-[4-(n-propyl)-3-(trifluoromethyl)phenyl]-3-pyridinecarboxamide]: the melting point is 147 to 149 °C.

`Cc1c(NC(=O)c2cccnc2NCc2ccncc2)cccc1C(F)(F)F` [Example 21, 2-[(4-Pyridyl)methylamino]-N-[2-methyl-3-(trifluoromethyl)phenyl]-3-pyridinecarboxamide] returned a melting point of 146 to 147 °C. In the case of `CCCCCc1ccc(NC(=O)c2cccnc2NCc2ccncc2)cc1` [Example 11, 2-[(4-Pyridyl)methylamino]-N-[4-(n-pentyl)phenyl]-3-pyridinecarboxamide], the melting point lay in the range of 106 to 107 °C. As for `CCCCc1ccc(NC(=O)c2cccnc2NCc2ccncc2)cc1` [Example 10, 2-[(4-Pyridyl)methylamino]-N-[4-(n-butyl)phenyl)3-pyridinecarboxamide], the figure is 107 to 108 °C; as for `O=C(Nc1cc(F)cc(C(F)(F)F)c1)c1cccnc1NCc1ccncc1` [Example 7, 2-[(4-Pyridyl)methylamino]-N-[3-fluoro-5-(trifluoromethyl)phenyl]-3-pyridinecarboxamide], 196 °C; as for `CC#Cc1ccc(NC(=O)c2cccnc2NCc2ccncc2)cc1C(F)(F)F` [Example 31, 2-[(4-Pyridyl)methylamino]-N-[4-propynyl-3-(trifluoromethyl)phenyl]3-pyridinecarboxamide], 213 to 217 °C. As for `O=C(Nc1cc2ccccc2cn1)c1cccnc1NCc1ccncc1` [Example 14, 2-[(4-Pyridyl)methylamino]-N-(3-isoquinolinyl)-3-pyridinecarboxamide], the figure is 191 to 195 °C. As for `CC#Cc1ccc(NC(=O)c2cccnc2NCc2ccc(=O)[nH]c2)cc1C(F)(F)F` [Example 32, 2-[(Pyridin-2(1H)-on-5-yl)methyl]amino-N-[4-propynyl-3-(trifluoromethyl)phenyl]-3-pyridinecarboxamide], the figure is 211 to 218 °C; as for `O=C(Nc1cccc(C(F)(F)F)c1F)c1cccnc1NCc1ccc(=O)[nH]c1` [Example 36, 2-[(Pyridin-2(1H)-on-5-yl)methyl]amino-N-[2-fluoro-3-(trifluoromethyl)phenyl]-3-pyridinecarboxamide], 219 to 222 °C; as for `COc1ccc(CNc2ncccc2C(=O)Nc2cccc(C(F)(F)F)c2)cn1.Cl.Cl`, 185 °C. Regarding `O=C(Nc1cccc(C(F)(F)F)c1F)c1cccnc1NCc1ccncc1` [Example 19, 2-[(4-Pyridyl)methylamino]-N-[2-fluoro-3-(trifluoromethyl)phenyl]-3-pyridinecarboxamide], the melting point lay within 137 to 140 °C. As for `COc1ccc(CNc2ncccc2C(=O)Nc2ccc(Br)c(C(F)(F)F)c2)cn1` [Example 24, 2-[(6-Methoxypyrid-3-yl)methylamino]-N-[4-bromo-3-(trifluoromethyl)phenyl]-3-pyridinecarboxamide], the figure is 123 to 125 °C; as for `CC(C)(C)[C@H]1CC[C@@H](NC(=O)c2cccnc2NCc2ccncc2)CC1` [Example 23, 2-[(4-Pyridyl)methylamino]-N-(cis-4-tert-butyl-cyclohexyl)-3-pyridinecarboxamide], 103 to 106 °C; as for `CCCc1ccc(NC(=O)c2cccnc2NCc2ccncc2)cc1` [Example 9, 2-[(4-Pyridyl)methylamino]-N-[4-(n-propyl)phenyl]-3-pyridinecarboxamide], 147 to 149 °C. As for `CC#Cc1ccc(NC(=O)c2cccnc2NCc2ccncc2)cc1` [Example 12, 2-[(4-Pyridyl)methylamino]-N-[4-(1-propynyl)phenyl]-3-pyridinecarboxamide], the figure is 216 to 221 °C.

Turning to `O=C(Nc1ccc2[nH]ncc2c1)c1cccnc1NCc1ccncc1` [Example 13, 2-[(4-Pyridyl)methylamino]-N-(5-indazolyl)-3-pyridinecarboxamide], the melting point lay in the range of 225 to 230 °C.

On to `O=C(Nc1ccc(C(F)(F)F)c(C(F)(F)F)c1)c1cccnc1NCc1ccncc1` [Example 6, 2-[(4-Pyridyl)methylamino]-N-[3,4-bis(trifluoromethyl)phenyl]-3-pyridinecarboxamide], for which the melting point is 194 to 196 °C. With `CCCc1ccc(NC(=O)c2cccnc2NCc2ccc(=O)[nH]c2)cc1C(F)(F)F` [Example 38, 2-[(Pyridin-2(1H)-on-5-yl)methyl]amino-N-[4-propyl-3-(trifluoromethyl)phenyl]-3-pyridinecarboxamide], the melting point lay in the range of 220 to 224 °C. As for `O=C(Nc1cccc(C(F)(F)F)c1)c1cccnc1NCc1cccc(O)c1` [Example 34, 2-[(3-Hydroxyphenyl)methyl]amino-N-[3-(trifluoromethyl)phenyl]-3-pyridinecarboxamide], the figure is 143 to 146 °C. As for `CC(C)(C)[C@H]1CC[C@H](NC(=O)c2cccnc2NCc2ccncc2)CC1` [Example 8, 2-[(4-Pyridyl)methylamino]-N-(trans-4-tert-butyl-cyclohexyl)-3-pyridinecarboxamide], the figure is 165 to 167 °C.
